From US6358885B1, “Substituted phenylheterocyclic herbicides” (Mississippi State University, priority 1992, dated 2002)

Experiments:
Test in all cases: Test B preemergence/postemergence greenhouse plant response rating 0 to 10
lambsquarters = format: in vivo, Chenopodium album; conditions: for Plant response rating, Lambsquarter: 0 to 10 scale
Outline: (§1)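 Planted seeds are treated preemergence with compound dissolved in a non-phytotoxic solvent, while postemergence applications go onto plants of two to eighteen cm. Plants stay in the greenhouse twelve to sixteen days and are then rated visually relative to controls.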

cotton = format: in vivo, Gossypium hirsutum; conditions: for Plant response rating, Cotton: 0 to 10 scale
Outline: as §1

wild oat = format: in vivo, Avena fatua; conditions: for Plant response rating, Wild oat: 0 to 10 scale
Outline: as §1

crabgrass = format: in vivo, Digitaria spp.; conditions: for Plant response rating, Crabgrass: 0 to 10 scale
Outline: as §1

rice = format: in vivo, Oryza sativa; conditions: for Plant response rating, Rice: 0 to 10 scale
Outline: as §1

chickweed = format: in vivo, Stellaria media; conditions: for Plant response rating, Chickweed: 0 to 10 scale
Outline: as §1

cheatgrass = format: in vivo, Bromus secalinus; conditions: for Plant response rating, Cheatgrass: 0 to 10 scale
Outline: as §1

wheat = format: in vivo, Triticum aestivum; conditions: for Plant response rating, Wheat: 0 to 10 scale
Outline: as §1

barnyardgrass = format: in vivo, Echinochloa crus-galli; conditions: for Plant response rating, Barnyardgrass: 0 to 10 scale
Outline: as §1

morningglory = format: in vivo, Ipomoea hederacea; conditions: for Plant response rating, Morningglory: 0 to 10 scale
Outline: as §1

sugar beet = format: in vivo, Beta vulgaris; conditions: for Plant response rating, Sugar beet: 0 to 10 scale
Outline: as §1

bedstraw = format: in vivo, Galium aparine; conditions: for Plant response rating, Bedstraw: 0 to 10 scale
Outline: as §1

velvetleaf = format: in vivo, Abutilon theophrasti; conditions: for Plant response rating, Velvetleaf: 0 to 10 scale
Outline: as §1

cocklebur = format: in vivo, Xanthium pensylvanicum; conditions: for Plant response rating, Cocklebur: 0 to 10 scale
Outline: as §1

corn = format: in vivo, Zea mays; conditions: for Plant response rating, Corn: 0 to 10 scale
Outline: as §1

giant foxtail = format: in vivo, Setaria faberii; conditions: for Plant response rating, Giant foxtail: 0 to 10 scale
Outline: as §1

rape = format: in vivo, Brassica napus; conditions: for Plant response rating, Rape: 0 to 10 scale
Outline: as §1

barley = format: in vivo, Hordeum vulgare; conditions: for Plant response rating, Barley: 0 to 10 scale
Outline: as §1

wild buckwheat = format: in vivo, Polygonum convolvulus; conditions: for Plant response rating, Wild buckwheat: 0 to 10 scale
Outline: as §1

blackgrass = format: in vivo, Alopecurus myosuroides; conditions: for Plant response rating, Blackgrass: 0 to 10 scale
Outline: as §1

purple nutsedge = format: in vivo, Cyperus rotundus; conditions: for Plant response rating, Nutsedge: 0 to 10 scale
Outline: as §1

soybean = format: in vivo, Glycine max; conditions: for Plant response rating, Soybean: 0 to 10 scale
Outline: as §1

sorghum = format: in vivo, Sorghum bicolor; conditions: for Plant response rating, Sorghum: 0 to 10 scale
Outline: as §1

## CC(C)Oc1cc(-c2nn3c(c2Cl)CCCC3)c(Cl)cc1Cl [Compound 70]
lambsquarters; POSTEMERGENCE, Rate 50 g/ha
  Plant response rating, Lambsquarter: 9
lambsquarters; PREEMERGENCE, Rate 50 g/ha
  Plant response rating, Lambsquarter: 7
lambsquarters; PREEMERGENCE, Rate 200 g/ha
  Plant response rating (0 to 10 scale), Lambsquarter: 10
lambsquarters; Rate 200 g/ha, POSTEMERGENCE
  Plant response rating, Lambsquarter: 10
cotton; POSTEMERGENCE, Rate 50 g/ha
  Plant response rating, Cotton: 10
cotton; PREEMERGENCE, Rate 50 g/ha
  Plant response rating, Cotton: 0
cotton; PREEMERGENCE, Rate 200 g/ha
  Plant response rating (0 to 10 scale), Cotton: 0
cotton; Rate 200 g/ha, POSTEMERGENCE
  Plant response rating, Cotton: 10
Wild oat; POSTEMERGENCE, Rate 50 g/ha
  Plant response rating, Wild oat: 2
Wild oat; PREEMERGENCE, Rate 50 g/ha
  Plant response rating, Wild oat: 2
Wild oat; PREEMERGENCE, Rate 200 g/ha
  Plant response rating (0 to 10 scale), Wild oat: 3
Wild oat; Rate 200 g/ha, POSTEMERGENCE
  Plant response rating, Wild oat: 3
crabgrass; POSTEMERGENCE, Rate 50 g/ha
  Plant response rating, Crabgrass: 3
crabgrass; PREEMERGENCE, Rate 50 g/ha
  Plant response rating, Crabgrass: 0
crabgrass; PREEMERGENCE, Rate 200 g/ha
  Plant response rating (0 to 10 scale), Crabgrass: 2
crabgrass; Rate 200 g/ha, POSTEMERGENCE
  Plant response rating, Crabgrass: 6
rice; POSTEMERGENCE, Rate 50 g/ha
  Plant response rating, Rice: 5
rice; PREEMERGENCE, Rate 50 g/ha
  Plant response rating, Rice: 0
rice; PREEMERGENCE, Rate 200 g/ha
  Plant response rating (0 to 10 scale), Rice: 0
rice; Rate 200 g/ha, POSTEMERGENCE
  Plant response rating, Rice: 5
chickweed; POSTEMERGENCE, Rate 50 g/ha
  Plant response rating, Chickweed: 2
chickweed; PREEMERGENCE, Rate 50 g/ha
  Plant response rating, Chickweed: 0
chickweed; PREEMERGENCE, Rate 200 g/ha
  Plant response rating (0 to 10 scale), Chickweed: 0
chickweed; Rate 200 g/ha, POSTEMERGENCE
  Plant response rating, Chickweed: 3
cheatgrass; POSTEMERGENCE, Rate 50 g/ha
  Plant response rating, Cheatgrass: 3
cheatgrass; PREEMERGENCE, Rate 50 g/ha
  Plant response rating, Cheatgrass: 0
cheatgrass; PREEMERGENCE, Rate 200 g/ha
  Plant response rating (0 to 10 scale), Cheatgrass: 2
cheatgrass; Rate 200 g/ha, POSTEMERGENCE
  Plant response rating, Cheatgrass: 4
wheat; POSTEMERGENCE, Rate 50 g/ha
  Plant response rating, Wheat: 4
wheat; PREEMERGENCE, Rate 50 g/ha
  Plant response rating, Wheat: 2
wheat; PREEMERGENCE, Rate 200 g/ha
  Plant response rating (0 to 10 scale), Wheat: 3
wheat; Rate 200 g/ha, POSTEMERGENCE
  Plant response rating, Wheat: 5
barnyardgrass; POSTEMERGENCE, Rate 50 g/ha
  Plant response rating, Barnyardgrass: 6
barnyardgrass; PREEMERGENCE, Rate 50 g/ha
  Plant response rating, Barnyardgrass: 0
barnyardgrass; PREEMERGENCE, Rate 200 g/ha
  Plant response rating (0 to 10 scale), Barnyardgrass: 0
barnyardgrass; Rate 200 g/ha, POSTEMERGENCE
  Plant response rating, Barnyardgrass: 7
morningglory; POSTEMERGENCE, Rate 50 g/ha
  Plant response rating, Morningglory: 7
morningglory; PREEMERGENCE, Rate 50 g/ha
  Plant response rating, Morningglory: 0
morningglory; PREEMERGENCE, Rate 200 g/ha
  Plant response rating (0 to 10 scale), Morningglory: 0
morningglory; Rate 200 g/ha, POSTEMERGENCE
  Plant response rating, Morningglory: 8
Sugar beet; POSTEMERGENCE, Rate 50 g/ha
  Plant response rating, Sugar beet: 10
Sugar beet; PREEMERGENCE, Rate 50 g/ha
  Plant response rating, Sugar beet: 6
Sugar beet; PREEMERGENCE, Rate 200 g/ha
  Plant response rating (0 to 10 scale), Sugar beet: 10
Sugar beet; Rate 200 g/ha, POSTEMERGENCE
  Plant response rating, Sugar beet: 10
bedstraw; POSTEMERGENCE, Rate 50 g/ha
  Plant response rating, Bedstraw: 8
bedstraw; PREEMERGENCE, Rate 50 g/ha
  Plant response rating, Bedstraw: 1
bedstraw; PREEMERGENCE, Rate 200 g/ha
  Plant response rating (0 to 10 scale), Bedstraw: 6
bedstraw; Rate 200 g/ha, POSTEMERGENCE
  Plant response rating, Bedstraw: 7
velvetleaf; POSTEMERGENCE, Rate 50 g/ha
  Plant response rating, Velvetleaf: 10
velvetleaf; PREEMERGENCE, Rate 50 g/ha
  Plant response rating, Velvetleaf: 0
velvetleaf; PREEMERGENCE, Rate 200 g/ha
  Plant response rating (0 to 10 scale), Velvetleaf: 5
velvetleaf; Rate 200 g/ha, POSTEMERGENCE
  Plant response rating, Velvetleaf: 10
cocklebur; POSTEMERGENCE, Rate 50 g/ha
  Plant response rating, Cocklebur: 8
cocklebur; PREEMERGENCE, Rate 50 g/ha
  Plant response rating, Cocklebur: 0
cocklebur; PREEMERGENCE, Rate 200 g/ha
  Plant response rating (0 to 10 scale), Cocklebur: 0
cocklebur; Rate 200 g/ha, POSTEMERGENCE
  Plant response rating, Cocklebur: 8
corn; POSTEMERGENCE, Rate 50 g/ha
  Plant response rating, Corn: 4
corn; PREEMERGENCE, Rate 50 g/ha
  Plant response rating, Corn: 0
corn; PREEMERGENCE, Rate 200 g/ha
  Plant response rating (0 to 10 scale), Corn: 0
corn; Rate 200 g/ha, POSTEMERGENCE
  Plant response rating, Corn: 4
Giant foxtail; POSTEMERGENCE, Rate 50 g/ha
  Plant response rating, Giant foxtail: 5
Giant foxtail; PREEMERGENCE, Rate 50 g/ha
  Plant response rating, Giant foxtail: 0
Giant foxtail; PREEMERGENCE, Rate 200 g/ha
  Plant response rating (0 to 10 scale), Giant foxtail: 4
Giant foxtail; Rate 200 g/ha, POSTEMERGENCE
  Plant response rating, Giant foxtail: 5
rape; POSTEMERGENCE, Rate 50 g/ha
  Plant response rating, Rape: 7
rape; PREEMERGENCE, Rate 50 g/ha
  Plant response rating, Rape: 2
rape; PREEMERGENCE, Rate 200 g/ha
  Plant response rating (0 to 10 scale), Rape: 3
rape; Rate 200 g/ha, POSTEMERGENCE
  Plant response rating, Rape: 9
barley; POSTEMERGENCE, Rate 50 g/ha
  Plant response rating, Barley: 3
barley; PREEMERGENCE, Rate 50 g/ha
  Plant response rating, Barley: 0
barley; PREEMERGENCE, Rate 200 g/ha
  Plant response rating (0 to 10 scale), Barley: 0
barley; Rate 200 g/ha, POSTEMERGENCE
  Plant response rating, Barley: 4
Wild buckwheat; POSTEMERGENCE, Rate 50 g/ha
  Plant response rating, Wild buckwheat: 10
Wild buckwheat; PREEMERGENCE, Rate 50 g/ha
  Plant response rating, Wild buckwheat: 8
Wild buckwheat; PREEMERGENCE, Rate 200 g/ha
  Plant response rating (0 to 10 scale), Wild buckwheat: 8
Wild buckwheat; Rate 200 g/ha, POSTEMERGENCE
  Plant response rating, Wild buckwheat: 10
blackgrass; PREEMERGENCE, Rate 50 g/ha
  Plant response rating, Blackgrass: 0
blackgrass; PREEMERGENCE, Rate 200 g/ha
  Plant response rating (0 to 10 scale), Blackgrass: 0
blackgrass; Rate 200 g/ha, POSTEMERGENCE
  Plant response rating, Blackgrass: 3
Purple nutsedge; POSTEMERGENCE, Rate 50 g/ha
  Plant response rating, Nutsedge: 1
Purple nutsedge; PREEMERGENCE, Rate 50 g/ha
  Plant response rating, Nutsedge: 0
Purple nutsedge; PREEMERGENCE, Rate 200 g/ha
  Plant response rating (0 to 10 scale), Nutsedge: 0
Purple nutsedge; Rate 200 g/ha, POSTEMERGENCE
  Plant response rating, Nutsedge: 5
soybean; POSTEMERGENCE, Rate 50 g/ha
  Plant response rating, Soybean: 5
soybean; PREEMERGENCE, Rate 50 g/ha
  Plant response rating, Soybean: 0
soybean; PREEMERGENCE, Rate 200 g/ha
  Plant response rating (0 to 10 scale), Soybean: 0
soybean; Rate 200 g/ha, POSTEMERGENCE
  Plant response rating, Soybean: 6
sorghum; POSTEMERGENCE, Rate 50 g/ha
  Plant response rating, Sorghum: 5
sorghum; PREEMERGENCE, Rate 50 g/ha
  Plant response rating, Sorghum: 0
sorghum; PREEMERGENCE, Rate 200 g/ha
  Plant response rating (0 to 10 scale), Sorghum: 0
sorghum; Rate 200 g/ha, POSTEMERGENCE
  Plant response rating, Sorghum: 6
